Source: the NIST ThermoML archive (doi:10.1016/j.fluid.2010.07.009)
Numbers after ± are expanded uncertainties.

What was measured:
[1] = Fluid (supercritical or subcritical phases), coriolis meter
[2] = xn = mol fraction of the nth substance listed; details: Fluid (supercritical or subcritical phases), coriolis meter

O=C=O [carbon dioxide]
mass density ([1]; 291.3 K, 6100 kPa): 817 ± 9 kg/m3
mass density ([1]; 291.5 K, 7100 kPa): 834 ± 14 kg/m3
mass density ([1]; 291.7 K, 8100 kPa): 849 ± 17 kg/m3
mass density ([1]; 291.9 K, 9200 kPa): 861 ± 9 kg/m3
mass density ([1]; 292 K, 10200 kPa): 872 ± 10 kg/m3
mass density ([1]; 292.1 K, 15200 kPa): 916 ± 12 kg/m3
mass density ([1]; 292.1 K, 20200 kPa): 948 ± 15 kg/m3
mass density ([1]; 292.1 K, 25300 kPa): 975 ± 10 kg/m3
mass density ([1]; 292.1 K, 30100 kPa): 997 ± 10 kg/m3

O=C=O [carbon dioxide] + COC
mass density ([2]; 291.3 K, 6100 kPa, x2 = 0): 817 ± 4 kg/m3
mass density ([2]; 291.5 K, 7100 kPa, x2 = 0): 834 ± 11 kg/m3
mass density ([2]; 291.7 K, 8100 kPa, x2 = 0): 849 ± 14 kg/m3
mass density ([2]; 291.9 K, 9200 kPa, x2 = 0): 861 ± 3 kg/m3
mass density ([2]; 292 K, 10200 kPa, x2 = 0): 872 ± 5 kg/m3
mass density ([2]; 292.1 K, 15200 kPa, x2 = 0): 916 ± 8 kg/m3
mass density ([2]; 292.1 K, 20200 kPa, x2 = 0): 948 ± 12 kg/m3
mass density ([2]; 292.1 K, 25300 kPa, x2 = 0): 975 ± 2 kg/m3
mass density ([2]; 292.1 K, 30100 kPa, x2 = 0): 997 ± 2 kg/m3

COC [dimethyl ether]
mass density ([1]; 288.5 K, 4100 kPa): 684 ± 7 kg/m3
mass density ([1]; 288.6 K, 5100 kPa): 686 ± 16 kg/m3
mass density ([1]; 288.8 K, 6100 kPa): 688 ± 7 kg/m3
mass density ([1]; 289 K, 7200 kPa): 690 ± 7 kg/m3
mass density ([1]; 289.1 K, 8200 kPa): 691 ± 7 kg/m3
mass density ([1]; 289.1 K, 9200 kPa): 693 ± 7 kg/m3
mass density ([1]; 289.3 K, 10000 kPa): 694 ± 7 kg/m3
mass density ([1]; 289.3 K, 15000 kPa): 703 ± 7 kg/m3
mass density ([1]; 289.3 K, 20000 kPa): 711 ± 7 kg/m3
mass density ([1]; 289.4 K, 25000 kPa): 718 ± 7 kg/m3
mass density ([1]; 289.5 K, 30000 kPa): 725 ± 8 kg/m3

COC [dimethyl ether] + O=C=O
mass density ([2]; 288.5 K, 4100 kPa, x1 = 1): 684 ± 1 kg/m3
mass density ([2]; 288.6 K, 5100 kPa, x1 = 1): 686 ± 14 kg/m3
mass density ([2]; 288.8 K, 6100 kPa, x1 = 1): 688 ± 1 kg/m3
mass density ([2]; 289 K, 7200 kPa, x1 = 1): 690 ± 2 kg/m3
mass density ([2]; 289.1 K, 8200 kPa, x1 = 1): 691 ± 1 kg/m3
mass density ([2]; 289.1 K, 9200 kPa, x1 = 1): 693 ± 1 kg/m3
mass density ([2]; 289.3 K, 10000 kPa, x1 = 1): 694 ± 1 kg/m3
mass density ([2]; 289.3 K, 15000 kPa, x1 = 1): 703 ± 1 kg/m3
mass density ([2]; 289.3 K, 20000 kPa, x1 = 1): 711 ± 1 kg/m3
mass density ([2]; 289.4 K, 25000 kPa, x1 = 1): 718 ± 2 kg/m3
mass density ([2]; 289.5 K, 30000 kPa, x1 = 1): 725 ± 2 kg/m3
mass density ([2]; 290.2 K, 4100 kPa, x1 = 0.251): 806 ± 1 kg/m3
mass density ([2]; 290.7 K, 30100 kPa, x1 = 0.251): 908 ± 2 kg/m3
mass density ([2]; 291.8 K, 25200 kPa, x1 = 0.251): 892 ± 1 kg/m3
mass density ([2]; 291.9 K, 10100 kPa, x1 = 0.251): 834 ± 2 kg/m3
mass density ([2]; 291.9 K, 15200 kPa, x1 = 0.251): 857 ± 1 kg/m3
mass density ([2]; 291.9 K, 20200 kPa, x1 = 0.251): 875 ± 1 kg/m3
mass density ([2]; 292 K, 8100 kPa, x1 = 0.251): 824 ± 2 kg/m3
mass density ([2]; 292 K, 9200 kPa, x1 = 0.251): 829 ± 2 kg/m3
mass density ([2]; 292.1 K, 6100 kPa, x1 = 0.251): 811 ± 2 kg/m3
mass density ([2]; 292.1 K, 7100 kPa, x1 = 0.251): 817 ± 2 kg/m3
mass density ([2]; 292.2 K, 5100 kPa, x1 = 0.251): 805 ± 6 kg/m3
mass density ([2]; 292.5 K, 4000 kPa, x1 = 0.458): 769 ± 1 kg/m3
mass density ([2]; 292.5 K, 5200 kPa, x1 = 0.458): 773 ± 1 kg/m3
mass density ([2]; 292.6 K, 6100 kPa, x1 = 0.458): 776 ± 1 kg/m3
mass density ([2]; 292.7 K, 7100 kPa, x1 = 0.458): 780 ± 1 kg/m3
mass density ([2]; 292.8 K, 8200 kPa, x1 = 0.458): 783 ± 1 kg/m3
mass density ([2]; 293 K, 9200 kPa, x1 = 0.458): 786 ± 15 kg/m3
mass density ([2]; 293.1 K, 10200 kPa, x1 = 0.458): 789 ± 1 kg/m3
mass density ([2]; 293.2 K, 15200 kPa, x1 = 0.458): 804 ± 1 kg/m3
mass density ([2]; 293.4 K, 20200 kPa, x1 = 0.458): 817 ± 1 kg/m3
mass density ([2]; 293.5 K, 25300 kPa, x1 = 0.458): 830 ± 1 kg/m3
mass density ([2]; 293.7 K, 29300 kPa, x1 = 0.458): 839 ± 1 kg/m3
mass density ([2]; 293.7 K, 30000 kPa, x1 = 0.458): 840 ± 1 kg/m3
